Drawing on ChEMBL document CHEMBL1127117 (Bioorg Med Chem Lett, 1993), this text covers inhibition in vivo, ED50 and inhibition for 19 compounds.

Activity calls are given as the source filed them. The calls are words filed in the database; no cut-off is given here.

The subject of one experiment is Mus musculus. Description: Compound was tested for inhibitory activity in oral mouse cholesterol biosynthesis assay at the dose of 40 mg/Kg. It counts as functional.
What is called inhibition in vivo is the change of the read-out against control, counted positive when it falls. On to `C=C(CCC12OC(C(=O)OCCC(C)C)C(O)(C(=O)O)C(C(=O)O)(O1)[C@H](OC(=O)/C=C/[C@@H](C)C[C@@H](C)CC)[C@H]2O)[C@@H](OC(C)=O)[C@H](C)Cc1ccccc1` (some centres undefined), for which testing at 40 mg/kg gave an inhibition in vivo of 61%.

The species named for a further experiment is Mus musculus. Description: Compound was tested for inhibitory activity in oral mouse cholesterol biosynthesis assay. The experiment is classed as functional.
As a reminder, the ED50 is the midpoint of the dose-response relation. As for `C=C(CCC12OC(C(=O)OCCC(C)C)C(O)(C(=O)OCOC(=O)C(C)(C)C)C(C(=O)O)(O1)[C@H](OC(=O)/C=C/[C@@H](C)C[C@@H](C)CC)[C@H]2O)[C@@H](OC(C)=O)[C@H](C)Cc1ccccc1` (some centres undefined), it took a dose of 9 mg/kg to reach the 50% effect level (ED50).
Still for that read-out and setting: the result for `C=C(CCC12OC(C(=O)OCCC(C)C)C(O)(C(=O)OC)C(C(=O)O)(O1)[C@H](OC(=O)/C=C/[C@@H](C)C[C@@H](C)CC)[C@H]2O)[C@@H](OC(C)=O)[C@H](C)Cc1ccccc1` (some centres undefined) reads 20 mg/kg.
Same read-out and setting: the result for `C=C(CCC12OC(C(=O)O)C(O)(C(=O)O)C(C(=O)O)(O1)[C@H](OC(=O)/C=C/[C@@H](C)C[C@@H](C)CC)[C@H]2O)[C@@H](OC(C)=O)[C@H](C)Cc1ccccc1` (some centres undefined) [ZARAGOZIC ACID A] reads 100 mg/kg.
Same read-out and setting: the result for `C=C(CCC12OC(C(=O)OCCC(C)C)C(O)(C(=O)OCOC(C)=O)C(C(=O)O)(O1)[C@H](OC(=O)/C=C/[C@@H](C)C[C@@H](C)CC)[C@H]2O)[C@@H](OC(C)=O)[C@H](C)Cc1ccccc1` (some centres undefined) reads 6 mg/kg.

For the next experiment, the system named is Mus musculus. Description: Compound was tested for inhibitory activity in oral mouse cholesterol biosynthesis assay at the dose of 24 mg/Kg; NA means not active. It counts as functional, organism-based.
`C=C(CCC12OC(C(=O)OCCC(C)C)C(O)(C(=O)OCC(=O)OC(C)(C)C)C(C(=O)O)(O1)[C@H](OC(=O)/C=C/[C@@H](C)C[C@@H](C)CC)[C@H]2O)[C@@H](OC(C)=O)[C@H](C)Cc1ccccc1` (some centres undefined): the inhibition result is “inactive”.
As for `C=C(CCC12OC(C(=O)OCCC(C)C)C(O)(C(=O)O)C(C(=O)OC)(O1)[C@H](OC(=O)/C=C/[C@@H](C)C[C@@H](C)CC)[C@H]2O)[C@@H](OC(C)=O)[C@H](C)Cc1ccccc1` (some centres undefined), the inhibition entry was “inactive”.
Same read-out and setting: the result for `C=C(CCC12OC(C(=O)OCCC(C)C)C(O)(C(=O)O)C(C(=O)OCc3ccccc3)(O1)[C@H](OC(=O)/C=C/[C@@H](C)C[C@@H](C)CC)[C@H]2O)[C@@H](OC(C)=O)[C@H](C)Cc1ccccc1` (some centres undefined) reads “inactive”; that for `C=CCOC(=O)C12OC(CCC(=C)[C@@H](OC(C)=O)[C@H](C)Cc3ccccc3)(OC(C(=O)OCCC(C)C)C1(O)C(=O)O)[C@H](O)[C@H]2OC(=O)/C=C/[C@@H](C)C[C@@H](C)CC` (some centres undefined), “inactive”.

In a further experiment the test system is Mus musculus. Description: Compound was tested for inhibitory activity in oral mouse cholesterol biosynthesis assay at the dose of 24 mg/Kg. It counts as functional.
For the compound `C=C(CCC12OC(C(=O)OCCC(C)C)C(O)(C(=O)OCCOC)C(C(=O)O)(O1)[C@H](OC(=O)/C=C/[C@@H](C)C[C@@H](C)CC)[C@H]2O)[C@@H](OC(C)=O)[C@H](C)Cc1ccccc1` (some centres undefined), at 24 mg/kg the inhibition in vivo was 55%.
Turning to `C=CCOC(=O)C1(O)C(C(=O)OCCC(C)C)OC2(CCC(=C)[C@@H](OC(C)=O)[C@H](C)Cc3ccccc3)OC1(C(=O)O)[C@H](OC(=O)/C=C/[C@@H](C)C[C@@H](C)CC)[C@H]2O` (some centres undefined), 24 mg/kg produced 38% inhibition in vivo.
On the same count and under the same terms, the result for `C=C(CCC12OC(C(=O)OCCC(C)C)C(O)(C(=O)OCC(=O)N(C)C)C(C(=O)O)(O1)[C@H](OC(=O)/C=C/[C@@H](C)C[C@@H](C)CC)[C@H]2O)[C@@H](OC(C)=O)[C@H](C)Cc1ccccc1` (some centres undefined) reads 12%; that for `C=C(CCC12OC(C(=O)OCCC(C)C)C(O)(C(=O)OCC(=O)OC)C(C(=O)O)(O1)[C@H](OC(=O)/C=C/[C@@H](C)C[C@@H](C)CC)[C@H]2O)[C@@H](OC(C)=O)[C@H](C)Cc1ccccc1` (some centres undefined), 43%; that for `C=C(CCC12OC(C(=O)OCCC(C)C)C(O)(C(=O)OCC(=O)N(CC)CC)C(C(=O)O)(O1)[C@H](OC(=O)/C=C/[C@@H](C)C[C@@H](C)CC)[C@H]2O)[C@@H](OC(C)=O)[C@H](C)Cc1ccccc1` (some centres undefined), 15%.
On the same count and under the same terms, the figure for `C=C(CCC12OC(C(=O)OCCC(C)C)C(O)(C(=O)OCC(=O)c3ccc(Br)cc3)C(C(=O)O)(O1)[C@H](OC(=O)/C=C/[C@@H](C)C[C@@H](C)CC)[C@H]2O)[C@@H](OC(C)=O)[C@H](C)Cc1ccccc1` (some centres undefined) is 7%; for `C=C(CCC12OC(C(=O)OCCC(C)C)C(O)(C(=O)OCc3ccccc3)C(C(=O)O)(O1)[C@H](OC(=O)/C=C/[C@@H](C)C[C@@H](C)CC)[C@H]2O)[C@@H](OC(C)=O)[C@H](C)Cc1ccccc1` (some centres undefined) it is 50%; for `C=C(CCC12OC(C(=O)OCCC(C)C)C(O)(C(=O)OCCCCCCCC)C(C(=O)O)(O1)[C@H](OC(=O)/C=C/[C@@H](C)C[C@@H](C)CC)[C@H]2O)[C@@H](OC(C)=O)[C@H](C)Cc1ccccc1` (some centres undefined) it is 5%.
Compound `C=C(CCC12OC(C(=O)OCCC(C)C)C(O)(C(=O)OCC)C(C(=O)O)(O1)[C@H](OC(=O)/C=C/[C@@H](C)C[C@@H](C)CC)[C@H]2O)[C@@H](OC(C)=O)[C@H](C)Cc1ccccc1` (some centres undefined) registered an inhibition in vivo at 24 mg/kg of 59%.

Another experiment relates to Mus musculus. Description: Compound was tested for inhibitory activity in oral mouse cholesterol biosynthesis assay at the dose of 6 mg/Kg. The experiment is classed as functional.
Turning to `C=C(CCC12OC(C(=O)OCCC(C)C)C(O)(C(=O)O)C(C(=O)OCOC(C)=O)(O1)[C@H](OC(=O)/C=C/[C@@H](C)C[C@@H](C)CC)[C@H]2O)[C@@H](OC(C)=O)[C@H](C)Cc1ccccc1` (some centres undefined), the inhibition in vivo at 6 mg/kg is 13%.
